Laboratory results published in patent EP2368895A1, “Ferrocenyl flavonoids” (Centre National de la Recherche Scientifique (CNRS), priority 2010, dated 2011).

Test system: Murine B16 melanoma cells
Conditions: for IC50: murine B16 melanoma cells, MTT, 48 h exposure time, mean ± SD of 3 determinations
Experimental: Murine B16 melanoma cells were grown in Dulbecco's modified essential medium (DMEM) containing 2 mM L-glutamine, 10% fetal bovine serum, 100 U/ml penicillin and 100 µg/ml streptomycin (37°C, 5% CO2). Stock solutions of the compounds were prepared in DMSO and further diluted in DMEM at the indicated concentrations with a final DMSO concentration of not exceeding 1%. Exponentially growing cells were plated onto 96-well plates at a density of 5000 cells per well in 200 µl DMEM, and 24 h later the compounds were added for another 48 h. Control wells were exposed to 1% DMSO. Viability was assessed using the MTT (1-(4,5-dimethylthiazol-2-yl)-3,5-diphenyltetrazolium) test and absorbance was read at 562 nm in a microplate reader (BioKinetics Reader, EL340) (Carmichael et al. 1987).

## 2-ferrocenyl-4H-chromen-4-one [Compound 2a]
  IC50: 33.9 ± 0.8 µM

## 6,8-dibromo-2-ferrocenyl-4H-chromen-4-one [Compound 2e]
  IC50: 13.7 ± 1 µM

## 6,8-dichloro-2-ferrocenyl-4H-chromen-4-one [Compound 2d]
  IC50: 12.1 ± 0.4 µM

## 6,8-difluoro-2-ferrocenyl-4H-chromen-4-one [Compound 2f]
  IC50: 18 ± 0.2 µM

## 6-bromo-2-ferrocenyl-4H-chromen-4-one [Compound 2c]
  IC50: 15.9 ± 0.3 µM

## 6-chloro-2-ferrocenyl-4H-chromen-4-one [Compound 2b]
  IC50: 15.6 ± 0.3 µM

## (E)-1-(2-hydroxyphenyl)-3-ferrocenylprop-2-en-1-one [Compound 1a]
  IC50: 43.7 ± 1.8 µM

## (E)-1-(3,5-dibromo-2-hydroxyphenyl)-3-ferrocenylprop-2-en-1-one [Compound 1e]
  cytotoxic activity: decrease in cytotoxic activity
  IC50: 84.2 ± 4.8 µM

## (E)-1-(3,5-dichloro-2-hydroxyphenyl)-3-ferrocenylprop-2-en-1-one [Compound 1d]
  cytotoxic activity: decrease in cytotoxic activity
  IC50: 73.6 ± 2.6 µM

## (E)-1-(3,5-difluoro-2-hydroxyphenyl)-3-ferrocenylprop-2-en-1-one [Compound 1f]
  cytotoxic activity: decrease in cytotoxic activity
  IC50: 49.4 ± 1.3 µM

## (E)-1-(5-bromo-2-hydroxyphenyl)-3-ferrocenylprop-2-en-1-one [Compound 1c]
  IC50: 44.6 ± 2.8 µM

## (E)-1-(5-chloro-2-hydroxyphenyl)-3-ferrocenylprop-2-en-1-one [Compound 1b]
  IC50: 29.5 ± 1.8 µM
